Assay results published in US20220288045A1, “Stable Pharmaceutical Composition Comprising Esomeprazole And Sodium Bicarbonate” (Chong Kun Dang Pharmaceutical Corp., priority 2019, published 2022).
Where two headings read alike, the source gives them in different places. Values belong to the compound of their own block, whether it stands above or below them.

Columns and labels:
[1] = aqueous solutions with 3 or less of a pH value; cited from earlier work
[2] = Stability test of esomeprazole and omeprazole according to pH (HPLC content in buffer solution); type: physicochemical; conditions: in % (unit assumed)
Experimental: After adding each 2 mL of 20 mg/mL strength of esomeprazole and omeprazole solutions to 100 mL of buffer solution, the content according to pH was analyzed, and the analysis method is as follows. <Analysis Method> A) Detector: Ultraviolet visible light absorption spectrometer (measurement wavelength: 280 nm) B) Column: Inertsil C8-3 (4.6×150 mm, 5 μm) or equivalent column C) Injection amount: 20 μl D) Flow rate: 1.5 mL/min E) Column temperature: constant temperature around 40° C. F) Sample temperature: constant temperature around 10° C.

[3] = for pH: 200 mL artificial gastric juice + 200 mL purified water, 37° C.
Excerpt: To set the content of sodium bicarbonate, the drug release conditions and gastric juice conditions were set as follows.

content according to pH ([2]; pH4.0, 5 min): 64.1 | content according to pH ([2]; pH4.0, 10 min): 31.0 | content according to pH ([2]; pH4.0, 15 min): 15.9 | content according to pH ([2]; pH4.0, 30 min): 6.9 | content according to pH ([2]; pH4.0, 45 min): 1.7 | content according to pH ([2]; pH4.0, 60 min): 0.9 | content according to pH ([2]; pH4.0, 120 min): 0.1 | content according to pH ([2]; pH6.0, 5 min): 74.4 | content according to pH ([2]; pH6.0, 10 min): 72.8 | content according to pH ([2]; pH6.0, 15 min): 71.0 | content according to pH ([2]; pH6.0, 30 min): 68.9 | content according to pH ([2]; pH6.0, 45 min): 66.3 | content according to pH ([2]; pH6.0, 60 min): 63.6 | content according to pH ([2]; pH6.0, 120 min): 54.9 | content according to pH ([2]; pH6.8, 5 min): 95.6 | content according to pH ([2]; pH6.8, 10 min): 90.8 | content according to pH ([2]; pH6.8, 15 min): 90.5 | content according to pH ([2]; pH6.8, 30 min): 89.7 | content according to pH ([2]; pH6.8, 45 min): 88.9 | content according to pH ([2]; pH6.8, 60 min): 88.3 | content according to pH ([2]; pH6.8, 120 min): 86.2 | content according to pH ([2]; pH7.0, 5 min): 99.6 | content according to pH ([2]; pH7.0, 10 min): 99.0 | content according to pH ([2]; pH7.0, 15 min): 99.3 | content according to pH ([2]; pH7.0, 30 min): 98.9 | content according to pH ([2]; pH7.0, 45 min): 98.7 | content according to pH ([2]; pH7.0, 60 min): 98.1 | content according to pH ([2]; pH7.0, 120 min): 96.8 | content according to pH ([2]; pH7.3, 5 min): 100.1 | content according to pH ([2]; pH7.3, 10 min): 100.1 | content according to pH ([2]; pH7.3, 15 min): 100.0 | content according to pH ([2]; pH7.3, 30 min): 100.0 | content according to pH ([2]; pH7.3, 45 min): 100.0 | content according to pH ([2]; pH7.3, 60 min): 100.0 | content according to pH ([2]; pH7.3, 120 min): 99.90 | content according to pH ([2]; pH7.5, 5 min): 99.4 | content according to pH ([2]; pH7.5, 10 min): 99.3 | content according to pH ([2]; pH7.5, 15 min): 99.2 | content according to pH ([2]; pH7.5, 30 min): 99.1 | content according to pH ([2]; pH7.5, 45 min): 99.3 | content according to pH ([2]; pH7.5, 60 min): 99.1 | content according to pH ([2]; pH7.5, 120 min): 98.2 | content according to pH ([2]; pH8.0, 15 min): 101.1 | content according to pH ([2]; pH8.0, 30 min): 100.9 | content according to pH ([2]; pH8.0, 45 min): 100.7 | content according to pH ([2]; pH8.0, 60 min): 100.7 | content according to pH ([2]; pH8.0, 120 min): 100.0
SMILES: COc1ccc2nc([S@@+]([O-])Cc3ncc(C)c(OC)c3C)[nH]c2c1 [S-omeprazole, (S)-5-methoxy-24(4-methoxy-3,5-dimethyl-2-pyridinyl)-methyllsulfinyl-1H-benzimidazole]
decomposition half-life [1]: less than 10 minutes

amount of sodium bicarbonate that can represent neutral pH by neutralizing 200 mL of artificial gastric juice ([3]; 200 mL artificial gastric juice): at least 600 mg | pH ([3]; Sodium bicarbonate 500 mg): 5.77 | pH ([3]; Sodium bicarbonate 600 mg): 6.51 | pH ([3]; Sodium bicarbonate 700 mg): 7.30 | pH ([3]; Sodium bicarbonate 800 mg): 7.30 | pH ([3]; Sodium bicarbonate 900 mg): 7.31 | pH ([3]; Sodium bicarbonate 1,000 mg): 7.37 | pH ([3]; Sodium bicarbonate 1,100 mg): 7.38 | pH ([3]; Sodium bicarbonate 1,200 mg): 7.38 | pH ([3]; Sodium bicarbonate 1,300 mg): 7.40
SMILES: O=C([O-])O.[Na+] [Sodium bicarbonate]
